{"source": "patent US9115143B2", "about": "“Substituted indole derivatives as gamma secretase modulators” (Janssen Pharmaceuticals, Inc., priority 2011, dated 2015)", "key": {"[1]": {"tested_on": "Aβ38", "test": "In vivo efficacy B-2a: brain soluble Aβ38 in non-transgenic rodents, ELISA", "set-up": "species or system mouse", "settings": "dose 30 mg/kg oral dosing, brain soluble fraction, untreated animals (Ctrl) set at 100; for response vs control in vivo at 30 mg/kg: Mus musculus, po, read-out: Aβ38 (% vs Ctrl)_Mean", "description": "Aβ38 increasing agents can be administered in any standard form using any standard method. For example, but not limited to, Aβ38 increasing agents can be in the form of liquid, tablets or capsules that are taken orally or by injection.\n(§1) To determine whether acute administration of an Aβ38 increasing agents would increase Aβ38 levels in vivo, non-transgenic rodents, e.g. mice or rats were used. Animals treated with the Aβ38 increasing agents were examined and compared to those untreated or treated with vehicle and brain levels of soluble Aβ38 and total Aβ were quantitated by standard techniques, for example, using ELISA. Treatment periods varied from hours (h) to days and were adjusted based on the results of the Aβ38 increase once a time course of onset of effect could be established.\n(§2) A typical protocol for measuring Aβ38 increase in vivo is shown but it is only one of many variations that could be used to optimize the levels of detectable Aβ. For example, Aβ38 increasing agents were formulated in 20% of Captisol® (a sulfobutyl ether of β-cyclodextrin) in water or 20% hydroxypropyl β cyclodextrin. The Aβ38 increasing agents were administered as a single oral dose or by any acceptable route of administration to overnight fasted animals. After 4 h, the animals were sacrificed and Aβ38 levels were analysed.\n(§3) Blood was collected by decapitation and exsanguinations in EDTA-treated collection tubes. Blood was centrifuged at 1900 g for 10 minutes (min) at 4° C. and the plasma recovered and flash frozen for later analysis. The brain was removed from the cranium and hindbrain. The cerebellum was removed and the left and right hemisphere were separated. The left hemisphere was stored at −18° C. for quantitative analysis of test compound levels. The right hemisphere was rinsed with phosphate-buffered saline (PBS) buffer and immediately frozen on dry ice and stored at −80° C. until homogenization for biochemical assays.\n(§4) Mouse brains from non-transgenic animals were resuspended in 8 volumes of 0.4% DEA (diethylamine)/50 mM NaCl containing protease inhibitors (Roche-11873580001 or 04693159001) per gram of tissue, e.g. for 0.158 g brain, add 1.264 mL of 0.4% DEA. All samples were homogenized in the FastPrep-24 system (MP Biomedicals) using lysing matrix D (MPBio #6913-100) at 6 m/s for 20 seconds. Homogenates were centrifuged at 20800×g for 5 min and supernatants collected. Supernatants were centrifuged at 221.300×g for 50 min. The resulting high speed supernatants were then transferred to fresh eppendorf tubes. Nine parts of supernatant were neutralized with 1 part 0.5 M Tris-HCl pH 6.8 and used to quantify Aβtotal and Aβ38.\nTo quantify the amount of Aβtotal and Aβ38 in the soluble fraction of the brain homogenates, Enzyme-Linked-Immunosorbent-Assays were used. Briefly, the standards (a dilution of synthetic Aβ1-40 and Aβ1-38, ANASPEC) were prepared in 1.5 mL Eppendorf tube in Ultraculture, with final concentrations ranging from 10000 to 0.3 pg/mL. The samples and standards were co-incubated with HRPO-labelled N-terminal antibody for Aβ38 detection and with the biotinylated mid-domain antibody 4G8 for Aβtotal detection. 50 μl of conjugate/sample or conjugate/standards mixtures were then added to the antibody-coated plate (the capture antibodies selectively recognize the C-terminal end of Aβ38, antibody J&JPRD/Aβ38/5, for Aβ38 detection and the N-terminus of Aβ, antibody JRF/rAβ/2, for Aβtotal detection). The plate was allowed to incubate overnight at 4° C. in order to allow formation of the antibody-amyloid complex. Following this incubation and subsequent wash steps the ELISA for Aβ38 quantification was finished by addition of Quanta Blu fluorogenic peroxidase substrate according to the manufacturer's instructions (Pierce Corp., Rockford, Ill.). A reading was performed after 10 to 15 min (excitation 320 nm/emission 420 nm). […]"}, "[2]": {"tested_on": "Aβ42", "test": "In vivo efficacy B-1a: brain soluble Aβ42 in non-transgenic rodents, ELISA", "set-up": "species or system mouse", "settings": "dose 30 mg/kg oral dosing, brain soluble fraction, untreated animals (Ctrl) set at 100; for response vs control in vivo at 30 mg/kg: Mus musculus, po, read-out: Aβ42 (% vs Ctrl)_Mean", "description": "as §1, with “Aβ42 lowering agent” for “Aβ38 increasing agents”, “reduce Aβ42” for “increase Aβ38”, “Aβ42” for “Aβ38”, “Aβ42 lowering” for “Aβ38 increase”\nas §2, with “measuring Aβ42 lowering” for “measuring Aβ38 increase”, “example, Aβ42 lowering compounds” for “example, Aβ38 increasing agents”, “The Aβ42 lowering” for “The Aβ38 increasing”, “and Aβ42” for “and Aβ38”\nas §3\nas §4, with “Aβ42.” for “Aβ38.”\nTo quantify the amount of Aβtotal and Aβ42 in the soluble fraction of the brain homogenates, Enzyme-Linked-Immunosorbent-Assays were used. Briefly, the standards (a dilution of synthetic Aβ1-40 and Aβ1-42, Bachem) were prepared in 1.5 mL Eppendorf tube in Ultraculture, with final concentrations ranging from 10000 to 0.3 pg/mL. The samples and standards were co-incubated with HRPO-labelled N-terminal antibody JRF/rAμ/2 for Aβ42 detection and with the biotinylated mid-domain antibody 4G8 for Aβtotal detection. 50 μl of conjugate/sample or conjugate/standards mixtures were then added to the antibody-coated plate (the capture antibodies selectively recognize the C-terminal end of Aβ42, antibody JRF/cAβ42/26, for Aβ42 detection and the N-terminus of AB, antibody JRF/rAβ/2, for Aβtotal detection). The plate was allowed to incubate overnight at 4° C. in order to allow formation of the antibody-amyloid complex. Following this incubation and subsequent wash steps the ELISA for Aβ42 quantification was finished by addition of Quanta Blu fluorogenic peroxidase substrate according to the manufacturer's instructions (Pierce Corp., Rockford, Ill.). A reading was performed after 10 to 15 min (excitation 320 nm/emission 420 nm).\nIn this model a Aβ42 lowering compared to untreated animals would be advantageous, in particular a Aβ42 lowering with at least 10%, more in particular a Aβ42 lowering with at least 20%.\nThe results are shown in Table 4 (dose 30 mg/kg oral dosing) (value for untreated animals as control (Ctrl) was set at 100): […]"}}, "data": [{"smiles": "Cc1cn(-c2ccc3[nH]c(-c4nc5n(n4)CCCC5c4ccc(F)cc4C)cc3c2)cn1", "note": "(centres unmarked) [Compound 73, 8-(4-fluoro-2-methylphenyl)-5,6,7,8-tetrahydro-2-[5-(4-methyl-1H-imidazol-1-yl)-1H-indol-2-yl]-[1,2,4]triazolo[1,5-a]pyridine]", "values": [{"measurement": "response vs control in vivo at 30 mg/kg", "setting": "[1]", "result": 120, "unit": "%"}, {"measurement": "response vs control in vivo at 30 mg/kg", "setting": "[2]", "result": 43, "unit": "%"}]}, {"smiles": "COc1c(C#N)ccc2[nH]c(-c3cn4c(n3)C(c3ccc(F)cc3C)CCC4)cc12", "note": "(centres unmarked) [Compound 74, 2-[8-(4-fluoro-2-methylphenyl)-5,6,7,8-tetrahydroimidazo[1,2-a]pyridin-2-yl]-4-methoxy-1H-indole-5-carbonitrile]", "values": [{"measurement": "response vs control in vivo at 30 mg/kg", "setting": "[1]", "result": 117, "unit": "%"}, {"measurement": "response vs control in vivo at 30 mg/kg", "setting": "[2]", "result": 49, "unit": "%"}]}, {"smiles": "COc1c(-c2cnn(C)c2)ccc2[nH]c(-c3cn4c(n3)C(c3ccc(F)cc3C)OCC4)cc12", "note": "(centres unmarked) [Compound 96, 8-(4-fluoro-2-methylphenyl)-5,6-dihydro-2-[4-methoxy-5-(1-methyl-1H-pyrazol-4-yl)-1H-indol-2-yl]-8H-imidazo[2,1-c][1,4]oxazine]", "values": [{"measurement": "response vs control in vivo at 30 mg/kg", "setting": "[1]", "result": 124, "unit": "%"}, {"measurement": "response vs control in vivo at 30 mg/kg", "setting": "[2]", "result": 55, "unit": "%"}]}, {"smiles": "Cc1cc(F)ccc1C1OCCn2cc(-c3cc4cc(-c5cnn(C)c5)ccc4[nH]3)nc21", "note": "(centres unmarked) [Compound 99, 8-(4-fluoro-2-methylphenyl)-5,6-dihydro-2-[5-(1-methyl-1H-pyrazol-4-yl)-1H-indol-2-yl]-8H-imidazo[2,1-c][1,4]oxazine]", "values": [{"measurement": "response vs control in vivo at 30 mg/kg", "setting": "[1]", "result": 96, "unit": "%"}, {"measurement": "response vs control in vivo at 30 mg/kg", "setting": "[2]", "result": 63, "unit": "%"}]}, {"smiles": "COc1c(C#N)ccc2[nH]c(-c3nc4n(n3)CCOC4c3ccc(F)cc3C)cc12", "note": "(centres unmarked) [Compound 111, 2-[8-(4-fluoro-2-methylphenyl)-5,6-dihydro-8H-[1,2,4]triazolo[5,1-c][1,4]oxazin-2-yl]-4-methoxy-1H-indole-5-carbonitrile]", "values": [{"measurement": "response vs control in vivo at 30 mg/kg", "setting": "[1]", "result": 107, "unit": "%"}, {"measurement": "response vs control in vivo at 30 mg/kg", "setting": "[2]", "result": 87, "unit": "%"}]}, {"smiles": "COc1c(C#N)ccc2[nH]c(-c3nc4n(n3)CCOC4c3ccc(F)cc3C)cc12", "note": "(centres unmarked) [Compound 114, 2-[8-(4-fluoro-2-methylphenyl)-5,6-dihydro-8H-[1,2,4]triazolo[5,1-c][1,4]oxazin-2-yl]-4-methoxy-1H-indole-5-carbonitrile]", "values": [{"measurement": "Aβ38 (% vs Ctrl)_Mean", "setting": "[1]; 30 mg/kg", "result": 88, "unit": "% vs Ctrl"}, {"measurement": "Aβ42 (% vs Ctrl)_Mean", "setting": "[2]; 30 mg/kg", "result": 95, "unit": "% vs Ctrl"}]}, {"smiles": "Cc1cn(-c2ccc3[nH]c(-c4nc5n(n4)CCCC5c4ccc(F)cc4C)nc3c2)cn1", "note": "(centres unmarked) [Compound 176, 8-(4-fluoro-2-methylphenyl)-5,6,7,8-tetrahydro-2-[5-(4-methyl-1H-imidazol-1-yl)-1H-benzimidazol-2-yl]-[1,2,4]triazolo[1,5-a]pyridine]", "values": [{"measurement": "response vs control in vivo at 30 mg/kg", "setting": "[1]", "result": 93, "unit": "%"}, {"measurement": "response vs control in vivo at 30 mg/kg", "setting": "[2]", "result": 93, "unit": "%"}]}]}
